# Like-named read-outs stand apart in the source and are kept apart here.
# Key:
# [1] = system: LPS-induced microglia activation; experiment: Image-based assay of LPS-induced microglia activation (HTS and dose response); assay type: cell-based, rat; settings: for inhibition at 10 µM: Rattus norvegicus, Microglia, read-out: LPS % inhibition
# primary rat microglia [2] = experiment: Cell toxicity (dead cells, size <150 μm2) in coated fibrin (cFib) assay; settings: for IC50: read-out: Cell Toxicity IC50 (uM) [cFib assay];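 on Fibrin % cell toxicity: share of dead cells sized under 150 µm2 at 10 µM in fibrin-stimulated microglia HTS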
# primary rat microglia [3] = experiment: Cell toxicity (dead cells, size <150 μm2) in LPS assay; settings: for IC50: read-out: Cell Toxicity IC50 (uM) [LPS assay]
# [4] = system: fibrin-induced microglia activation; experiment: Image-based assay of fibrin-induced microglia activation (HTS and dose response); assay type: cell-based, rat; settings: for inhibition at 10 µM: Rattus norvegicus, Microglia, read-out: Fibrin % inhibition
# [5] = system: fibrin- and LPS-induced microglia activation; experiment: cells; assay type: cell-based, rat
# [6] = primary microglia HTS, 10 μM, LPS-stimulated, cell size >800 μm^2 as marker of activation
# [7] = primary microglia HTS, 10 μM, fibrin assay, cell size <150 μm^2 as marker of toxicity
# [8] = primary microglia HTS, 10 μM, LPS assay, cell size <150 μm^2 as marker of toxicity
# [9] = primary microglia HTS, 10 μM, fibrin-stimulated, cell size >800 μm^2 as marker of activation
# [10] = HTS of 1907 compounds, quadrant by fibrin and LPS inhibition
# [11] = primary microglia HTS, fibrin stimulation, toxicity = cell size <150 μm2
# [12] = primary microglia HTS, LPS stimulation, toxicity = cell size <150 μm2
# [13] = primary microglia HTS, fibrin stimulation, activation = cell size >800 μm2
# [14] = quadrant by fibrin and LPS inhibition in HTS of 1907 compounds
# [15] = primary HTS, 10 μM, LPS-stimulated primary microglia
# [16] = primary HTS, 10 μM, fibrin assay, dead cells size <150 μm2
# [17] = primary HTS, 10 μM, LPS assay, dead cells size <150 μm2
# [18] = primary HTS, 10 μM, fibrin-stimulated primary microglia
# [19] = primary microglia HTS, LPS stimulation, increased cell size (>800 μm^2) as marker of activation
# [20] = primary microglia HTS, fibrin stimulation, increased cell size (>800 μm^2) as marker of activation
smiles,measurement,setting,value
CC(S)C(=O)NCC(=O)O (stereo not drawn) [Tiopronin],inhibition at 10 µM,[1]; [6],6%
same,Fibrin % cell toxicity,primary rat microglia [2]; [7],1%
same,LPS % cell toxicity,primary rat microglia [3]; [8],0%
same,inhibition at 10 µM,[4]; [9],-8%
same,Quadrant (FIG. 5b),[5]; [10],Q4
N=C(N)N/N=C/c1c(Cl)cccc1Cl [Guanabenz Acetate],LPS % inhibition,"[1]; primary microglia HTS, LPS stimulation, activation = cell size >800 μm2",−2%
same,Fibrin % cell toxicity,primary rat microglia [2]; [11],0%
same,LPS % cell toxicity,primary rat microglia [3]; [12],0%
same,Fibrin % inhibition,[4]; [13],−46%
same,Quadrant (FIG. 5b),[5]; [14],Q4
NC(=O)N1c2ccccc2C=Cc2ccccc21 [Carbamazepine],inhibition at 10 µM,[1]; [15],4%
same,Fibrin % cell toxicity,primary rat microglia [2]; [16],0%
same,LPS % cell toxicity,primary rat microglia [3]; [17],0%
same,inhibition at 10 µM,[4]; [18],-25%
same,Quadrant (FIG. 5b),"[5]; primary HTS, 10 μM",Q4
N=C(NCCCCCCNC(=N)NC(=N)Nc1ccc(Cl)cc1)NC(=N)Nc1ccc(Cl)cc1,LPS % inhibition,[1]; [19],69%
same,Fibrin % cell toxicity,"primary rat microglia [2]; primary microglia HTS, fibrin stimulation, decreased size (<150 μm^2) as marker of toxicity",1%
same,LPS % cell toxicity,"primary rat microglia [3]; primary microglia HTS, LPS stimulation, decreased size (<150 μm^2) as marker of toxicity",8%
same,Fibrin % inhibition,[4]; [20],15%
same,Quadrant (FIG. 5b),[5]; [14],Q1
O=C1CN=C(c2ccccc2Cl)c2cc([N+](=O)[O-])ccc2N1 [Clonazepam],inhibition at 10 µM,[1]; [15],-9%
same,Fibrin % cell toxicity,primary rat microglia [2]; [16],0%
same,LPS % cell toxicity,primary rat microglia [3]; [17],0%
same,inhibition at 10 µM,[4]; [18],-12%
same,Quadrant (FIG. 5b),"[5]; primary HTS, 10 μM",Q4
CC(C)(Oc1ccc(CCNC(=O)c2ccc(Cl)cc2)cc1)C(=O)O [Bezafibrate],inhibition at 10 µM,[1]; [15],18%
same,Fibrin % cell toxicity,primary rat microglia [2]; [16],0%
same,LPS % cell toxicity,primary rat microglia [3]; [17],0%
same,inhibition at 10 µM,[4]; [18],-4%
same,Quadrant (FIG. 5b),"[5]; primary HTS, 10 μM",Q4
C=CCN1C[C@H](C(=O)N(CCCN(C)C)C(=O)NCC)C[C@@H]2c3cccc4[nH]cc(c34)C[C@H]21 [Cabergoline],inhibition at 10 µM,[1]; [15],33%
same,Fibrin % cell toxicity,primary rat microglia [2]; [16],1%
same,LPS % cell toxicity,primary rat microglia [3]; [17],1%
same,inhibition at 10 µM,[4]; [18],20%
same,Quadrant (FIG. 5b),"[5]; primary HTS, 10 μM",Q4
"O=C1[O][Pt]2([NH][C@@H]3CCCC[C@H]3[NH]2)[O]C1=O [Oxaliplatin, reference compound]",IC50,"[1]; LPS-induced microglia activation, dose response, read-out: LPS IC50 (uM) (Suppl. Table 7)",15 µM
same,IC50,"[1]; Table 1, dose response 0.001-20 μM, triplicates, primary rat microglia, 48 h, read-out: LPS IC50",15 µM
same,IC50,"[1]; Table 3, read-out: LPS IC50 (uM) (Suppl. Table 7)",15 µM
same,IC50,"[1]; dose response, LPS-induced microglia activation, read-out: LPS IC50",15 µM
same,LPS % inhibition,"[1]; primary microglia HTS, LPS stimulation, compounds at 10 μM",21%
same,LPS % inhibition,[1]; [19],41%
same,IC50,primary rat microglia [2]; Table 3,> 20 µM
same,IC50,primary rat microglia [2]; cFib assay,> 20 µM
same,IC50,primary rat microglia [3]; LPS assay,> 20 µM
same,IC50,primary rat microglia [3]; Table 3,> 20 µM
same,IC50,"[4]; Table 1, dose response 0.001-20 μM, triplicates, primary rat microglia, 48 h, read-out: Fibrin IC50",5 µM
same,IC50,"[4]; Table 3, read-out: Fibrin IC50 (uM) (Suppl. Table 7)",5 µM
same,IC50,"[4]; dose response, fibrin-induced microglia activation, read-out: Fibrin IC50",5 µM
same,IC50,"[4]; fibrin-induced microglia activation, dose response, read-out: Fibrin IC50 (uM) (Suppl. Table 7)",5 µM
same,Fibrin % inhibition,"[4]; primary microglia HTS, fibrin stimulation, compounds at 10 μM",66%
same,Fibrin % inhibition,[4]; [20],96%
same,Hit,[5]; HTS hit classification,HIT (Hits were defined as molecules that exhibited greater than 50% inhibition of either fibrin or LPS activation)
same,Quadrant (FIG. 5b),[5]; [10],Q3
same,Quadrant (FIG. 5b),"[5]; Table 1, screen at 10 μM",Q3
same,Cherry-picked Hit (Suppl. Table 7),[5]; Table 3,HIT (Hits were defined as molecules that exhibited greater than 50% inhibition of either fibrin or LPS activation)
same,Quadrant (FIG. 5b),"[5]; Table 3, screen at 10 μM",Q3
same,Cherry-picked Hit (Suppl. Table 7),[5]; hit classification in microglia HTS,HIT (Hits were defined as molecules that exhibited greater than 50% inhibition of either fibrin or LPS activation)
same,Quadrant (FIG. 5b),[5]; [14],Q3
same,Quadrant (FIG. 5b),"[5]; quadrant by fibrin and LPS inhibition, HTS at 10 μM",Q3
Cl.NC1CCN(c2c(F)cc3c(=O)c(C(=O)O)cn(C4CC4)c3c2Cl)C1 (stereo not drawn) [Clinafoxacin Hydrochloride],LPS % inhibition,[1]; [15],9%
same,Fibrin % cell toxicity,primary rat microglia [2]; [16],0%
same,LPS % cell toxicity,primary rat microglia [3]; [17],0%
same,Fibrin % inhibition,[4]; [18],−22%
same,Quadrant (FIG. 5b),"[5]; primary HTS, 10 μM",Q4
CCCCCCCCCCCCCCCC[N+](C)(C)CCN(Cc1ccc(OC)cc1)c1ncccn1 [Thonzonium Bromide],inhibition at 10 µM,[1]; [6],19%
same,Fibrin % cell toxicity,primary rat microglia [2]; [7],0%
same,LPS % cell toxicity,primary rat microglia [3]; [8],1%
same,inhibition at 10 µM,[4]; [9],-1%
same,Quadrant (FIG. 5b),[5]; [10],Q4
CC(C)CCCC(C)NC(C)C (stereo not drawn) [Iproheptine],inhibition at 10 µM,"[1]; 48 h, primary microglia HTS, LPS stimulation, activation = cell size >800 μm2",11%
same,Fibrin % cell toxicity,primary rat microglia [2]; [11],1%
same,LPS % cell toxicity,primary rat microglia [3]; [12],0%
same,inhibition at 10 µM,[4]; [13],-34%
same,Quadrant (FIG. 5b),[5]; [14],Q4
CO[C@@]1(NC(=O)CSCC#N)C(=O)N2C(C(=O)O)=C(CSc3nnnn3C)CS[C@@H]21 [Cefmetazole],inhibition at 10 µM,[1]; [15],8%
same,Fibrin % cell toxicity,primary rat microglia [2]; [16],0%
same,LPS % cell toxicity,primary rat microglia [3]; [17],0%
same,inhibition at 10 µM,[4]; [18],-50%
same,Quadrant (FIG. 5b),"[5]; primary HTS, 10 μM",Q4
c1ccc2c(c1)CCCC2C1=NCCN1 (stereo not drawn) [Tetryzoline],inhibition at 10 µM,[1]; [6],16%
same,Fibrin % cell toxicity,primary rat microglia [2]; [7],0%
same,LPS % cell toxicity,primary rat microglia [3]; [8],0%
same,inhibition at 10 µM,[4]; [9],-29%
same,Quadrant (FIG. 5b),[5]; [10],Q4
